Reference: patent publication US20230263825A1, “ANTI-CANCER ACTIVITY OF PERBORATE SALTS” (priority 2020, published 2023)
Entries after “also recorded” stand apart in the source; their conditions may differ.

Columns and labels:
Format in all cases: cell-based
[1] = tested on: DMS114 cells (small cell lung cancer cells); experiment: MTS cytotoxicity assay
Method: (§1) An MTS reduction (MTS (3-(4,5-dimethylthiazol-2-yl)-5-(3-carboxymethoxyphenyl)-2-(4-sulfophenyl)-2H-tetrazolium) assay) was conducted to analyze the cytotoxic effect of sodium perborate tetrahydrate on lung, chordoma and pancreatic cells and normal cells. In this method, cell viability is determined via the activity of mitochondrial dehydrogenase enzyme, which reduces the tetrazolium dye MTS to its […] formazan (absorbance maximum of 490 nm in PBS).
(§2) Cells were counted and seeded in 96-well culture dishes. […] The positive control comprised 20% Dimethyl Sulfoxide and the negative control comprised complete growth media. Seeding densities were as follows: DMS114: 20.000 cells/well; MRC5: 5.000 cells/well; CH22: 2.000 cells/well; JHC7, UM-Chor1, MUG-Chor1, UCH1 and NPH: 5.000 cells/well; PSN1: 10.000 cells/well; BxPC3 and ASPC: 7.500 cells/well. The effect of sodium perborate tetrahydrate on cell viability was measured as follows. The cell culture medium was discarded and 100 μl of MTS solution (10% glucose solution and 1% MTS-PMS solution in PBS) was added into each well. After 1 hour incubation in a humidified incubator, an absorbance reading was taken to determine mitochondrial dehydrogenase activity and cell survival was calculated relative to the negative control.

[2] = tested on: chordoma (CH22, JHC7, UM-Chor1, MUG-Chor1, U-CH1) cells; experiment: MTS cytotoxicity assay
Method: as §1, §2

normal cells (MRC5, NPH) = experiment: MTS cytotoxicity assay
Method: as §1, §2

[3] = tested on: pancreatic cancer (PSN1, BxPC3 and ASPC) cells; experiment: MTS cytotoxicity assay
Method: as §1, §2

[4] = tested on: PSN-1 (a pancreatic adenocarcinoma cell line); experiment: MTS cytotoxicity assay, single agents and combinations; details: PSN-1, alone
Method: as §1, §2

DMS114 cells = experiment: Video analysis of cell movement and division; details: 72 hour treatment
Method: (§3) The DMS114 and MRC5 cells from Example 2 were analyzed during the 3 day treatment period with sodium perborate tetrahydrate. Roughly 20 photos/hour were taken of the cells over the 72 hour (3 day) period. The resulting 1500 were merged to create a video which was used to observe the effect of sodium perborate on movement and division of DMS114 and MRC5 cells. […] FIGS. 21A and 21B show DMS114 cells at the start and end of the 72 hour treatment period. FIGS. 22A and 22B show MRC5 cells at the start and end of the 72 hour treatment period.

MRC5 cells = experiment: Video analysis of cell movement and division
Method: as §3

## O.O.O.O.[Na+].[O-]B1OO1 [sodium perborate tetrahydrate]
[1]
  cell survival of lung cancer cell lines: effective in decreasing cell survival
[1]; DMS114
  EC50 (dose that kills 50% of cells): 15 µg/mL
[1]; FIG. 3A
  time to maximum effect on DMS114 cells: ≤ 1 days
[1]; FIGS. 23A-C, same biological model
  toxicity compared with other boron derivatives: significantly less toxic than boric acid and sodium pentaborate pentahydrate
[2]
  cell survival of chordoma cell lines: effective in decreasing cell survival
Normal cells (MRC5, NPH)
  cell survival of normal cell lines: minimal impact on the cell survival
[3]
  cell survival of pancreatic cell lines: effective in decreasing cell survival
[4]
  EC50 concentration: 7.5 µg/mL
DMS114 cells
  DMS114 cells whose movement was stopped: ~100%
MRC5 cells
  division and movement of healthy cells: slowing cell division and movement of healthy cells to some extent; also recorded: only slowed the division and movement
